Where two headings read alike, the source gives them in different places.
Experiments:
[1] = system: S. typhimurium TA1535/pSK1002; details: −S9, highest tested concentration 10 μg/mL
Procedure: (§1) IR was calculated on the basis of spectrophotometric measurement.

[2] = system: S. typhimurium TA1535/pSK1002
Procedure: Metabolic activation was obtained with S9 fraction prepared from livers of male Sprague Dawley rats. […] After isolation, the evaluation of cytochrome p450 level was performed and samples were stored at −80 ^∘ C. The S9 mix was prepared according to the method described by Maron and Ames.
as §1

[3] = system: S. typhimurium TA1535/pSK1002; remark: listed apart in the source
Procedure: as §1
The anti-photogenotoxicity was determined using chlorpromazine (CPZ) as an agent inducing genotoxic response under UVA irradiation by forming an unstable promazyl radical which is able to bind to DNA [62]. The protocol developed by Skrzypczak et. al was applied. […] The rate of anti-photogenotoxicity was calculated using the same formula as the rate of antigenotoxicity.

[4] = system: S. typhimurium TA1535/pSK1002; details: mixture with 4NQO 0.05 μg/mL
Procedure: Salmonella typhimurium strain TA1535/pSK1002 was purchased from Deutsche Sammlung von Mikroorganismen und Zellkulturen GmbH (DSMZ, Germany).
The strain used in the test carries the fusion of umuC and lacZ genes, which are placed at the plasmid pSK1002. […] In the present study, the umu-test was carried out in the micro-plate variant according to the ISOguideline [61]. β -galactosidase activity of the tested compound was presented as induction ratio (IR). IR was calculated as the β -galactosidase activity of the tested compound relative to the negative control.
IR was calculated on the basis of spectrophotometric measurement. The absorption at 420 nm indicated the intensity of the enzymatic reaction, and the optical density at 600 nm indicated the bacteria growth. The measurements were performed with an Asys UVM340 Hightech microplate spectrophotometer.
At the same time, the genotoxicity of PhAs (10 μ g/mL) and EXTs (0.25–2 mg/mL) was investigated.

[5] = system: S. typhimurium TA1535/pSK1002; assay type: cell-based, Salmonella typhimurium
Procedure: as §1

[6] = system: S. typhimurium TA98 strain; details: against 4NQO; cited from earlier work
[7] = system: MMC genotoxicity; details: CGA 5 and 50 μM, MMC 0.9 μM (0.3 μg/mL); cited from earlier work
[8] = +S9, highest tested concentration 10 μg/mL
[9] = mixture with 2AA 1 μg/mL, PhA concentration 0.3125 (mg/mL)
[10] = mixture with 2AA 1 μg/mL, PhA concentration 0.625 (mg/mL)
[11] = mixture with 2AA 1 μg/mL, PhA concentration 1.25 (mg/mL)
[12] = mixture with 2AA 1 μg/mL, PhA concentration 2.5 (mg/mL)
[13] = mixture with 2AA 1 μg/mL, PhA concentration 5 (mg/mL)
[14] = mixture with 2AA 1 μg/mL, PhA concentration 10 (mg/mL)
[15] = mixture with 2AA 10 μg/mL, PhA concentration 0.3125 (mg/mL)
[16] = mixture with 2AA 10 μg/mL, PhA concentration 0.625 (mg/mL)
[17] = mixture with 2AA 10 μg/mL, PhA concentration 1.25 (mg/mL)
[18] = mixture with 2AA 10 μg/mL, PhA concentration 2.5 (mg/mL)
[19] = mixture with 2AA 10 μg/mL, PhA concentration 5 (mg/mL)
[20] = mixture with 2AA 10 μg/mL, PhA concentration 10 (mg/mL)
[21] = mixture with CPZ 5 μg/mL, UVA, PhA 5 μg/mL
[22] = mixture with CPZ 5 μg/mL, UVA, PhA 10 μg/mL
[23] = mixture with CPZ 5 μg/mL, UVA, PhA […]
[24] = mixture with CPZ 10 μg/mL, UVA, PhA 5 μg/mL
[25] = mixture with CPZ 10 μg/mL, UVA, PhA 10 μg/mL
[26] = mixture with CPZ 10 μg/mL, UVA, PhA […]
[27] = mixture with MMC 0.004 μg/mL, PhA 5 μg/mL
[28] = mixture with MMC 0.004 μg/mL, PhA 10 μg/mL
[29] = mixture with MMC 0.004 μg/mL, PhA […]
[30] = mixture with MMC 0.02 μg/mL, PhA 5 μg/mL
[31] = mixture with MMC 0.02 μg/mL, PhA 10 μg/mL
[32] = mixture with MMC 0.02 μg/mL, PhA […]

SMILES	IR (mean ± SD) [1]	IR (mean ± SD) [2, 8]	IR (mean ± SD) [2, 9]	IR (mean ± SD) [2, 10]	IR (mean ± SD) [2, 11]	IR (mean ± SD) [2, 12]	IR (mean ± SD) [2, 13]	IR (mean ± SD) [2, 14]	IR (mean ± SD) [2, 15]	IR (mean ± SD) [2, 16]	IR (mean ± SD) [2, 17]	IR (mean ± SD) [2, 18]	IR (mean ± SD) [2, 19]	IR (mean ± SD) [2, 20]	Anti-Photogenotox. ([3]; CPZ 5 μg/mL, UVA, PhA […]) [%]	Anti-Photogenotox. ([3]; CPZ 10 μg/mL, UVA, PhA […]) [%]	IR (mean ± SD) [3, 21]	IR (mean ± SD) [3, 22]	IR (mean ± SD) [3, 23]	IR (mean ± SD) [3, 24]	also measured
COc1cc(/C=C/C(=O)O)ccc1O [FA, ferulic acid]	1.2 ± 0.10	1.1 ± 0.14	3.1 ± 0.73	2.7 ± 0.37	2.9 ± 0.66	2.8 ± 0.58	3.4 ± 0.96	4 ± 1.0	2.9 ± 0.43	3.1 ± 0.75	3.3 ± 0.63	3.2 ± 0.45	4 ± 1.3	5 ± 1.4	20	14	3.0 ± 0.37	3.2 ± 0.20	3.0 ± 0.41	4.5 ± 0.73	Antigenotox. ([2]; 2AA 1 μg/mL, PhA concentration 0.625 (mg/mL)): 19%; Anti-Photogenotox. ([3]; CPZ 5 μg/mL, UVA, PhA 5 μg/mL): 15%; Anti-Photogenotox. ([3]; CPZ 5 μg/mL, UVA, PhA 10 μg/mL): 11%; Anti-Photogenotox. ([3]; CPZ 10 μg/mL, UVA, PhA 10 μg/mL): 15%; IR (mean ± SD) [3, 25]: 4.3 ± 0.46; IR (mean ± SD) [3, 26]: 4 ± 1.1; IR (mean ± SD) ([4]; PhA 5 μg/mL): 3.6 ± 0.67; IR (mean ± SD) ([4]; PhA 10 μg/mL): 4.0 ± 0.70; IR (mean ± SD) [5, 27]: 2.5 ± 0.62; IR (mean ± SD) [5, 28]: 2.3 ± 0.51; IR (mean ± SD) [5, 29]: 2.6 ± 0.93; IR (mean ± SD) [5, 30]: 5 ± 1.2; IR (mean ± SD) [5, 31]: 5 ± 1.2; IR (mean ± SD) [5, 32]: 5 ± 1.2
O=C(O)/C=C/c1ccc(O)c(O)c1 [CA, caffeic acid]	1.1 ± 0.16	1.0 ± 0.11	3 ± 1.0	3.1 ± 0.55	3.1 ± 0.29	3.1 ± 0.53	3.7 ± 0.77	3.8 ± 0.85	2.8 ± 0.60	3.4 ± 0.90	2.7 ± 0.34	3.2 ± 0.51	3.6 ± 0.89	3.7 ± 0.80	11	10	3.3 ± 0.33	3.4 ± 0.25	3.2 ± 0.40	5 ± 1.2	Antigenotox. ([2]; 2AA 10 μg/mL, PhA concentration 1.25 (mg/mL)): 24%; reduction of the number of revertants [6]: 28%; IR (mean ± SD) [3, 25]: 4.9 ± 0.90; IR (mean ± SD) [3, 26]: 4.5 ± 0.49; IR (mean ± SD) ([4]; PhA 5 μg/mL): 3.7 ± 0.69; IR (mean ± SD) ([4]; PhA 10 μg/mL): 3.9 ± 0.99; IR (mean ± SD) [5, 27]: 2.7 ± 0.81; IR (mean ± SD) [5, 28]: 2.3 ± 0.67; IR (mean ± SD) [5, 29]: 2.5 ± 0.75; IR (mean ± SD) [5, 30]: 5 ± 1.1; IR (mean ± SD) [5, 31]: 5 ± 1.2; IR (mean ± SD) [5, 32]: 5 ± 1.2
CN(C)CCCN1c2ccccc2Sc2ccc(Cl)cc21 [CPZ, chlorpromazine]																					IR (mean ± SD) ([3]; control: CPZ 5 μg/mL alone, UVA irradiation): 3.6 ± 0.40; IR (mean ± SD) ([3]; control: CPZ 10 μg/mL alone, UVA irradiation): 5.1 ± 0.78
Nc1ccc2cc3ccccc3cc2c1 [2AA, 2-aminoanthracene]																					IR (mean ± SD) ([2]; control: 2AA 1 μg/mL alone, +S9, experiments with PhAs): 3.37 ± 0.72; IR (mean ± SD) ([2]; control: 2AA 1 μg/mL alone, +S9, experiments with extracts): 4.5 ± 0.99; IR (mean ± SD) ([2]; control: 2AA 10 μg/mL alone, +S9, experiments with PhAs): 4 ± 1.3; IR (mean ± SD) ([2]; control: 2AA 10 μg/mL alone, +S9, experiments with extracts): 6 ± 1.5
O=C(/C=C/c1ccc(O)c(O)c1)O[C@@H]1C[C@](O)(C(=O)O)C[C@@H](O)[C@H]1O [CGA, Chlorogenic acid]																					inhibition of MMC genotoxicity [7]: 65%

Reference: PMC7179227, “Antigenotoxic, Anti-photogenotoxic, and Antioxidant Properties of Polyscias filicifolia Shoots Cultivated In Vitro” (Molecules, 2020)
